This note sets out measurements from US5260425A, “Anthracycline derivatives having cytostatic activity” (priority 1988, dated 1993).

Converted amounts (≈) assume the structure as drawn. Like-named read-outs stand apart in the source and are kept apart here.

Series [1] in a line: Determination of the indicative toxicity. To be noted: mouse, in vivo, ip; 3xip,q3d (three intraperitoneal administrations, 3 days interval); survival day 14. As for the experimental part:
To determine the indicative toxicity, NMRI mice receive an intraperitoneal injection of various doses of the test substance dissolved in 0.5 ml of 5% strength glucose solution on day 0. Control groups receive merely 0.5 ml of 5% strength glucose solution. 5 mice are used for each concentration of the test substance. The number of mice surviving on day 14 is determined, and from this the LD5, LD50 and LD95 are determined by the Litchfield-Wilcoxon method. The toxicity (LD50 (mg/kg)) of the compounds described here is summarized in Table 3 by comparison with adriamycin.

Series [2] has as its system sensitive and resistant L1210 leukemia cells. Put plainly: Proliferation test (MTT reduction), cross-resistance to doxorubicin/adriamycin in vitro. In kind it is cell-based, mouse. As for the experimental part: L1210, A 549 or HT 29 in the exponential phase of growth are incubated in a cell density of 5×10^3 cells/ml in RPMI 1640 in a 96-well microtiter plate with various concentrations of the test substance at 37° C., 5% CO2 and 95% relative humidity for 72 h. Control experiments receive merely growth medium in place of the test substance. Quadruplicate determinations are set up for each test substance and for the control. After incubation for 65 h, 50 μl of an MTT solution (2.5 mg/ml; MTT=3-(4,5-dimethylthiazol-2-yl)-2,5-diphenyltetrazoliumbromide) in phosphate-buffered saline) are added. MTT is reduced to a dark red insoluble formazan dyestuff in the presence of live cells. This reaction is complete after 7 h (L1210 cells) or after 24 h (A 549, HT 29 cells), and the supernatant medium is carefully removed by aspiration. The insoluble dyestuff is dissolved by addition of 100 μl of DMSO (dimethyl sulfoxide) and the extinction of the resulting solution at a wavelength of 492 nm is then measured for each well in a multiscan 340 CC photometer from Flow.
The ratio of the extinctions for treated and untreated cells provides a dose-effect plot from which the concentration which just kills 50% of the cells (IC50) can be read off. The coefficient of variation for repeat investigations is less than 15%.
The cross-resistance between the particular test compound and doxorubicin as standard compound is determined with the aid of the MTT test (see above for method) on sensitive and resistant L1210 leukemia cells.
The resistant cell line was established by incubation of a sensitive subline with the reference compound in concentrations which increased stepwise.
The IC50 of the test compound on the resistant subline related to the IC50 of the sensitive subline provides both the degree of resistance for the test Compound (DR(T)) and that for the reference compound (DR(R)) in accordance with the formula [formula]
In addition, the degree of cross-resistance (DCR) for the test compound is calculated in accordance with the formula [formula]
In the case where the loss of effect of the test compound on the resistant line in relation to the sensitive line is greater than that of the reference compound it is possible for the degree of cross-resistance to be above 100%.
In general terms: Formazan colour is commonly taken as a measure of viable cells.

Series [3] relates to L1210 mouse leukemia cells. Kind of series: Formation of colonies of L1210 leukemia cells in soft agar (cytotoxicity in vitro). In kind it is cell-based. The conditions noted are these: for IC50: Mus musculus. As for the experimental part:
The cytostatic activity of the compounds according to the invention has been tested using L1210 mouse leukemia cells. Employed for this purpose was the formation of colonies of L1210 leukemia cells in agar plates. This method is used to detect the effect of the test substances on the growth behavior of the cells over 1 hour or over several generations. In this connection, with a cell cycle time of 10-12 hours about 14 consecutive generations are observed in the 7 days the test lasts. In this test, the substances having cytostatic activity according to the invention bring about a reduction in the number of colonies to be observed by comparison with an untreated control sample.
Procedure for determining the formation of colonies of L1210 leukemia cells in soft agar
500 leukemia cells per plate were incubated with various concentrations of the test substance at 37° C. for 1 hour. The cells were then washed twice with McCoy5A medium and finally, after addition of 0.3% agar, poured into Petri dishes. Controls were incubated only with fresh medium. In place of the incubation for one hour, in some cases various concentrations and test substances were mixed with the upper agar layer in order in this way to achieve continuous exposure of the cells throughout the incubation time. After the agar had solidified, the plates were incubated in an incubator at 37° C. for 7 days (5% by volume CO2, 95% relative humidity). The number of colonies which had been produced with a diameter of more than 60 μm was then counted. The results have been reported as the number of colonies in treated agar plates as a percentage of the untreated control. The IC50 was determined as a measure of the activity of the substance from the dose-effect plot obtained in this way. The results for the compounds described herein, by comparison with adriamycin, are compiled in Table 1.

Series [4] has as its system L1210 leukemia. Kind of series: In vivo activity on L1210 leukemia of the mouse (antitumor activity T/C). The conditions noted are these: Mus musculus. As to the method: Ascites fluid is removed from DBA2 mice (female, 18-20 g) under sterile conditions 7 days after inoculation of tumor cells. The ascites is washed three times with PBS (phosphate-buffered saline), counted and adjusted to a cell count of 10^6 in 0.2 ml of PBS.
10^6 cells, suspended in 0.2 ml of PBS, are then injected intraperitoneally into DBF1 mice (female, 18-20 g). 6 animals per group are used for each substance concentration and as controls.
a) The animals are weighed on days 1 and 5 after injection of the test substance. A weight loss of more than 20% on day 5 is regarded as an indicator of a toxic effect of the substance.
b) At the end of the experiment (death of all animals or surviving animals on day 60) the mean survival time of the animals in the particular groups is determined as long as at least 65% of the animals were still alive on day 5 of the experiment. The mean survival time is determined only for animals which die during the course of the experiment. Long-term survivors (LTS) are not included in this calculation and are reported separately.
The antitumor activity (T/C) for the particular substance concentration is determined from the mean survival time (MSTT) in the treated groups and in the control groups (MSTC) as a percentage of the untreated controls in accordance with the following formula: [formula]
The T/C values and the treatment regimen employed in each case are compiled in Table 3, together with the indicative toxicity. T/C values greater than 125% are regarded as an indicator of a significant antitumor activity of the test substance.

Setting [5] is: 168 h, continuous incubation, 7 days, L1210 colonies in agar, read-out: IC50, continuous incubation.
[6] abbreviates: 1 h incubation, then 7 days, L1210 colonies in agar, read-out: IC50, 1 h incubation.
Setting [7] is: L1210, 168 h, read-out: IC50, continuous incubation, continuous incubation, 7 days, L1210 colonies in agar.
[8] abbreviates: L1210, read-out: IC50, 1 h incubation, 1 h incubation, then 7 days, L1210 colonies in agar.
Setting [9] is: 1 h incubation, then 7 days, L1210 colonies in agar.
[10] abbreviates: continuous incubation, 7 days, L1210 colonies in agar.

In general, LD50 refers to the dose at which mortality reaches 50%. Higher therefore signals a less toxic substance. Usually IC50 stands for the concentration that inhibits the measured activity by half. Take `CC[C@@]1(O)C[C@H](O[C@H]2C[C@H](N(C)Cc3ccncc3)[C@H](O)[C@H](C)O2)c2c(O)c3c(c(O)c2[C@H]1O)C(=O)c1cccc(O)c1C3=O` [Compound 4, 7-O-(3'-N-Methyl-3'-N-(4-picolyl)-alpha-L-daunosaminyl)-β-rhodomycinone]: the 50% lethal dose (LD50) at 336 h in series [1] was in the range of 2.5 to 5 mg/kg. Further, in series [2] (L1210, MTT, in vitro), the “Cross-resistance to doxorubicin (in words)” value is listed as “not cross-resistant to doxorubicin”. Besides, in series [2] (MTT, 3d, IC50 resistant subline related to IC50 sensitive subline), the “Degree of resistance of the cell” value worked out at 1.6. Further, the “Cross-resistance to adriamycin (degree of cross-resistance)” value in series [2] (MTT, 3d, adriamycin = 100.0) came out at 0.2%. The figures for the 50% inhibitory concentration (IC50) in series [3] (setting [5]) and in series [3] (setting [6]) were 0.023 µg/mL (≈ 0.0371 µM) and 0.1 µg/mL (≈ 0.161 µM), respectively.

For the compound `C=CCN(C)[C@H]1C[C@H](O[C@H]2C[C@](O)(CC)[C@H](O)c3c(O)c4c(c(O)c32)C(=O)c2c(OC)cccc2C4=O)O[C@@H](C)[C@H]1O` [Compound 17, 7-O-(3'-N-Allyl-3'-N-methyl-alpha-L-daunosaminyl)-4-O-methyl-β-rhodomycinone], the IC50 in series [3] (setting [5]) is 0.036 µg/mL (≈ 0.0617 µM); in series [3] (setting [6]), greater than 1 µg/mL.

As to `C=CCN(C)[C@H]1C[C@H](O[C@H]2C[C@](O)(C(C)=O)Cc3c(O)c4c(c(O)c32)C(=O)c2c(OC)cccc2C4=O)O[C@@H](C)[C@H]1O` [Compound 15, 7-O-(3'-N-Allyl-3'-N-methyl-alpha-L-daunosaminyl)-daunomycinone], the IC50 in series [3] (setting [7]) was 0.008 µg/mL (≈ 0.0138 µM); in series [3] (setting [8]), greater than 1 µg/mL.

Take `CC[C@@]1(O)C[C@H](O[C@H]2C[C@H](N(C)CCO)[C@H](O)[C@H](C)O2)c2c(O)c3c(c(O)c2[C@H]1O)C(=O)c1cccc(O)c1C3=O` [Compound 3, -O-(3'-N-Hydroxyethyl-3'-N-methyl-alpha-L-daunosaminyl)-β-rhodomycinone]: the response vs control in vivo at 1.13 mg/kg in series [4] (L1210, iv, 3xiv,q3d, dose 1.13 mg/kg, % of the control) was determined as 108%. This compound registered a 50% lethal dose (LD50) at 336 h in series [1] of 0.2 to 1 mg/kg. Further, the results for the half-maximal inhibitory concentration (IC50) in series [3] (setting [5]) and in series [3] (setting [6]) were 0.02 µg/mL (≈ 0.0349 µM) and 0.044 µg/mL (≈ 0.0767 µM), respectively.

In the case of `CC[C@@]1(O)C[C@H](O[C@H]2C[C@H](N(C)CC3CO3)[C@H](O)[C@H](C)O2)c2c(O)c3c(c(O)c2[C@H]1O)C(=O)c1cccc(O)c1C3=O` (single isomer, unassigned) [Compound 8a, 7-O-(3'-N-Glycidyl-3'-N-methyl-alpha-L-daunosaminyl)-β-rhodomycinone], the “IC50, 1 h incubation” value in series [3] (setting [9]) was 0.0034 µg/mL (≈ 0.00581 µM). Moreover, the “IC50, continuous incubation” value in series [3] (setting [10]) was determined as 0.001 µg/mL (≈ 0.00171 µM).

`CCOC(=O)CN(C)[C@H]1C[C@H](O[C@H]2C[C@](O)(CC)[C@H](O)c3c(O)c4c(c(O)c32)C(=O)c2c(O)cccc2C4=O)O[C@@H](C)[C@H]1O` [Compound 10, 7-O-(3'-N-(Ethoxycarbonylmethyl)-3'-N-methyl-alpha-L-daunosaminyl)-β-rhodomycinone]: the response vs control in vivo at 12.7 mg/kg in series [4] (L1210, iv, 3xiv,q3d, dose 12.7 mg/kg, % of the control) amounted to 132%. Also, the median lethal dose (LD50) at 336 h in series [1] lay in the range of 10 to 25 mg/kg. Besides, the values for the 50% inhibitory concentration (IC50) in series [3] (setting [5]) and in series [3] (setting [6]) were 0.1 µg/mL (≈ 0.162 µM) and 0.06 µg/mL (≈ 0.0975 µM), respectively.

Consider `CC[C@@]1(O)C[C@H](O[C@H]2C[C@H](N(C)CC3CO3)[C@H](O)[C@H](C)O2)c2c(O)c3c(c(O)c2[C@H]1O)C(=O)c1cccc(O)c1C3=O` (single isomer, unassigned) [Compound 8b, 7-O-(3'-N-Glycidyl-3'-N-methyl-alpha-L-daunosaminyl)-β-rhodomycinone], for which the “IC50, 1 h incubation” value in series [3] (setting [9]) turned out to be 0.01 µg/mL (≈ 0.0171 µM). The “IC50, continuous incubation” value in series [3] (setting [10]) came to 0.003 µg/mL (≈ 0.00512 µM).

For the compound `CC[C@@]1(O)C[C@H](O[C@H]2C[C@H](N(C)Cc3cccs3)[C@H](O)[C@H](C)O2)c2c(O)c3c(c(O)c2[C@H]1O)C(=O)c1cccc(O)c1C3=O` [Compound 13, 7-O-(3'-N-Methyl-3'-N-(2-thenyl)-alpha-L-daunosaminyl)-β-rhodomycinone], the half-inhibitory concentration (IC50) in series [3] (setting [5]) turned out to be 0.034 µg/mL (≈ 0.0543 µM); in series [3] (setting [6]), 0.38 µg/mL (≈ 0.607 µM).

As to `CC[C@@]1(O)C[C@H](O[C@H]2C[C@H](N(C)CC(C)=O)[C@H](O)[C@H](C)O2)c2c(O)c3c(c(O)c2[C@H]1O)C(=O)c1cccc(O)c1C3=O` [Compound 18, 7-O-(3'-N-Acetonyl-3'-N-methyl-alpha-L-daunosaminyl)-β-rhodomycinone], the IC50 worked out at 0.018 µg/mL (≈ 0.0307 µM) in series [3] (setting [5]) and 0.073 µg/mL (≈ 0.125 µM) in series [3] (setting [6]).

In turn, `C=CCN(C)[C@H]1C[C@H](O[C@H]2C[C@](O)(CC)[C@H](O)c3c(O)c4c(c(O)c32)C(=O)c2c(O)ccc(O)c2C4=O)O[C@@H](C)[C@H]1O` [Compound 9, 7-O-(3'-N-Allyl-3'-N-methyl-alpha-L-daunosaminyl)-β-isorhodomycinone] came in with a 50% lethal dose (LD50) at 336 h in series [1] greater than 6 mg/kg. Also, the 50% inhibitory concentration (IC50) in series [3] (setting [5]) came out at 0.008 µg/mL (≈ 0.0137 µM); in series [3] (setting [6]), 0.5 µg/mL (≈ 0.854 µM).

For the compound `CC[C@@]1(O)C[C@H](O[C@H]2C[C@H](N(C)Cc3ccccn3)[C@H](O)[C@H](C)O2)c2c(O)c3c(c(O)c2[C@H]1O)C(=O)c1cccc(O)c1C3=O` [Compound 5, 7-O-(3'-N-Methyl-3'-N-(2-picolyl)-alpha-L-daunosaminyl)-β-rhodomycinone], the half-maximal inhibitory concentration (IC50) in series [3] (setting [5]) came out at 0.038 µg/mL (≈ 0.0612 µM); in series [3] (setting [6]), 0.24 µg/mL (≈ 0.387 µM).

As for `CC[C@@]1(O)C[C@H](O[C@H]2C[C@H](N(C)CC3CO3)[C@H](O)[C@H](C)O2)c2c(O)c3c(c(O)c2[C@H]1O)C(=O)c1cccc(O)c1C3=O` (stereo partly drawn) [Compound 8m, 7-O-(3'-N-Glycidyl-3'-N-methyl-alpha-L-daunosaminyl)-β-rhodomycinone], in series [4] (L1210, ip, read-out: T/C, L1210-leukemia in vivo), the response vs control in vivo at 0.47 mg/kg came out at 114%. Further, the IC50 in series [3] (setting [7]) stood at 0.002 µg/mL (≈ 0.00342 µM); in series [3] (setting [8]), 0.0072 µg/mL (≈ 0.0123 µM).
